19 compounds from patent US11555012B2 (Nimbus Artemis, Inc., priority 2018, dated 2023) can be followed below.

The target in test [1] is T1, ACL (Homo sapiens (Human), UniProt P53396). Kind of test: ADP-Glo Assay. A general note: In ADP-Glo the light output rises with the ADP produced.
Target sequence in this assay (P53396 other isoform, or with tags, fused parts or gaps isoform P53396-2): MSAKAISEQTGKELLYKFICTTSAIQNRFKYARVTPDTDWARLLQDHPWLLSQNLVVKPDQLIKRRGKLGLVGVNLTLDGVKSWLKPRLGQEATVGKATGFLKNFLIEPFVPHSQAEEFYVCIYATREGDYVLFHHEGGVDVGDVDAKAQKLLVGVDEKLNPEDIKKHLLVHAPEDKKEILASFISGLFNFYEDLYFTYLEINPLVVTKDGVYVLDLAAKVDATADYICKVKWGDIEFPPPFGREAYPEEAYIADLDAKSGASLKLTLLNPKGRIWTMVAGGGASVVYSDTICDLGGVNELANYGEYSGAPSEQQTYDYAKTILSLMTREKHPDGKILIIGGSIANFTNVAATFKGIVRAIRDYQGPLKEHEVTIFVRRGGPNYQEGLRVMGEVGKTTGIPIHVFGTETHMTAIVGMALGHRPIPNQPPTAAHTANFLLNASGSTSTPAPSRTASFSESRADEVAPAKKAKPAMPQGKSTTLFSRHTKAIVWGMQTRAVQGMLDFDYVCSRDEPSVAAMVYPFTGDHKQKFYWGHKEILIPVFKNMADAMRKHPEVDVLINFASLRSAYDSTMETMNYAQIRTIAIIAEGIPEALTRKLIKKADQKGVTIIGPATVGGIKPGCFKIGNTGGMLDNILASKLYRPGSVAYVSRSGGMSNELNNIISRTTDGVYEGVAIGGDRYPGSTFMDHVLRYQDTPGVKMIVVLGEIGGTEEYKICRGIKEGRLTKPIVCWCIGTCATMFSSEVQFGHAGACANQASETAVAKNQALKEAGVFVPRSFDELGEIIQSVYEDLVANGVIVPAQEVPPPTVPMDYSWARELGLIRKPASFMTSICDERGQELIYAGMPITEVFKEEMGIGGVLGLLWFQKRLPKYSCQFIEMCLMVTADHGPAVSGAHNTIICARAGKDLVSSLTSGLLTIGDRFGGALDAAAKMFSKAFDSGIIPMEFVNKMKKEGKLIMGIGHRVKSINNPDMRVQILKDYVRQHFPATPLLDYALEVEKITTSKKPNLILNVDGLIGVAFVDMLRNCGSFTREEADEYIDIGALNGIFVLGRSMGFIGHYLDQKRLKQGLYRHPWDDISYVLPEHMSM
Test [2] concerns the target T1, ACL. The test can be described thus: ACLY-MDH Coupled Assay.
Target sequence in this assay (P53396 whole entry, species assumed): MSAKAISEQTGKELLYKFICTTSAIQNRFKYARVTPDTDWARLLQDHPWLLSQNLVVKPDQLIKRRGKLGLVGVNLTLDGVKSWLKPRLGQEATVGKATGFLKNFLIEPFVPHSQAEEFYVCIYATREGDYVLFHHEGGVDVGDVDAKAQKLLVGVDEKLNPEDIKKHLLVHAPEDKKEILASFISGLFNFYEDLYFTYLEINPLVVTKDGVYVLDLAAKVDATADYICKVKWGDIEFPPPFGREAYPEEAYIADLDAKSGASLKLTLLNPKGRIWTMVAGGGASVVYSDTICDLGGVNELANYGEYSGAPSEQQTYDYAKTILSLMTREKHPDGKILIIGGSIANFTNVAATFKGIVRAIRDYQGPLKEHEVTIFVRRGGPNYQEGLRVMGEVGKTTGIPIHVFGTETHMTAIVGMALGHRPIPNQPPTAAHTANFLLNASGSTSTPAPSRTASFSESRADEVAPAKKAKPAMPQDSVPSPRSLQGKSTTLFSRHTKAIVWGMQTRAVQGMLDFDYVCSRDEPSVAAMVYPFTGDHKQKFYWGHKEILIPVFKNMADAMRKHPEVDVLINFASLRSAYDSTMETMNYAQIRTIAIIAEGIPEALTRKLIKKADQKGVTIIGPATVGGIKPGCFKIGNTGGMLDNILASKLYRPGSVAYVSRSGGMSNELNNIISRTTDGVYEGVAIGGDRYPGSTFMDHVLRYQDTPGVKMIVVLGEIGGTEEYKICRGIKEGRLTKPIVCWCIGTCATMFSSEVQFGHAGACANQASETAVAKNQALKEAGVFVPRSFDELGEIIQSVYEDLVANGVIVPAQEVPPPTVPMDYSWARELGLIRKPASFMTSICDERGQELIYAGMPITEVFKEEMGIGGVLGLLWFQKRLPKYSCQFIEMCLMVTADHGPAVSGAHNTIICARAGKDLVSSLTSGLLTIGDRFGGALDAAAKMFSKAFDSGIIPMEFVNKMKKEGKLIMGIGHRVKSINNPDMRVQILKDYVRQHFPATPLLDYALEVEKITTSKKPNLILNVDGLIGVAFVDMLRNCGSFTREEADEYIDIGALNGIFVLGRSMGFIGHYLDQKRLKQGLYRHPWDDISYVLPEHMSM
Protocol: Compounds of the present invention were evaluated in an ACLY Coupled Assay.
The assay protocol for the Coupled Assay (below) was followed:
b) Add 1 μL cpds to 96 assay plate, Test cpd conc: 100/30/10 μM top dose, 3 folds dilution, 10+0+control (control: buffer without ACL+DMSO) points, 1000 rpm for 1 min, incubation at 25° C. for 60 min
In test [3] the test system is HepG2 cells. Particulars: Homo sapiens, HepG2, read-out: ACLY HepG2 14C-Pyruvate Assay serum free IC50 FA (IC50) [μM].
Protocol: ACLY HepG2 ^14C-Pyruvate Incorporation Serum-Free Assay (IC50 Fatty
The protocol of the assay (below) was followed:
(§1) After 48 hours, change medium with fresh growth medium.
(§2) After 18 hours, replaced medium using 0.5 mL fresh medium (5.5 mM Glucose, without FBS, 1% PS, without Pyruvate) containing Compounds or 0.5% DMSO, incubated at 37° C., 5% CO2 for 1 hour.
(§3) Add 3 μci of [14C]-pyruvate per well to the cell samples were incubated at 37° C., 5% CO2 for 5 hours.
Medium was removed and placed into a 15 mL centrifuge tube. Add 0.5 mL of 0.1M NaOH to each well and then transfer the cell lysates into the corresponding 15 mL centrifuge tubes. 1.0 mL of EtOH and 0.17 mL 50% KOH were added to 15 mL tubes containing medium and cell suspensions, then shaking tube gently. […] Saponification 15 mL tubes containing medium and cell suspensions were incubated at 90° C. for 1 hour, then cooled to room temperature. […] Cholesterol Extraction 5 mL of petroleum ether was added per tube to extract Cholesterol, shaken vigorously, centrifuged at 1000 rpm for 5 min, and ˜5 mL of the petroleum ether layer was transferred to a new glass tube (18*180 mm). […] Acidification The samples in 15 mL tube were acidified directly with 1 mL concentrated HCl, make sure pH was below 1. […] Fatty Acids Extraction 5 mL of petroleum ether was added per tube, shaken vigorously, centrifuged at 1000 rpm for 5 min, 5 mL of the petroleum ether layer was transferred to the corresponding glass tube. […] Repeat the Step 8 10. Count The petroleum ether extracts were pooled and evaporated to dryness overnight. The residue from the petroleum ether fractions were resuspended in 500 μL of chloroform-hexane (1:1) containing 420 μg of linoleic acid as a carrier. Add 200 μL of resuspending (chloroform-hexane (1:1) containing 168 μg of linoleic acid) to 2 mL Ultima Gold™, after 30 min, count on a scintillation counter.
The subject of test [4] is HepG2 cells. As to conditions: Homo sapiens, HepG2, read-out: ACLY HepG2 14C-Pyruvate Assay serum free IC50 Cholesterol (IC50) [μM].
Protocol: ACLY HepG2 ^14C-Pyruvate Incorporation Serum-Free Assay (IC50 Cholesterol and Fatty Acid Synthesis)
Compounds of the present invention were evaluated in a HepG2 ^14C-pyruvate incorporation assay. The protocol below was followed:
as §1, §2, §3
Medium was removed and placed into a 15 mL centrifuge tube. Add 0.5 mL of 0.1M NaOH to each well and then transfer the cell lysates into the corresponding 15 mL centrifuge tubes. 1.0 mL of EtOH and 0.17 mL 50% KOH were added to 15 mL tubes containing medium and cell suspensions, then shaking tube gently. […] Saponification 15 mL tubes containing medium and cell suspensions were incubated at 90° C. for 1 hour, then cooled to room temperature. […] Cholesterol Extraction 5 mL of petroleum ether was added per tube to extract Cholesterol, shaken vigorously, centrifuged at 1000 rpm for 5 min, and ˜5 mL of the petroleum ether layer was transferred to a new glass tube (18*180 mm). […] Acidification The samples in 15 mL tube were acidified directly with 1 mL concentrated HCl, make sure pH was below 1. […] Fatty Acids Extraction 5 mL of petroleum ether was added per tube, shaken vigorously, centrifuged at 1000 rpm for 5 min, 5 mL of the petroleum ether layer was transferred to the corresponding glass tube. […] Count The petroleum ether extracts were pooled and evaporated to dryness overnight. The residue from the petroleum ether fractions were resuspended in 500 μL of chloroform-hexane (1:1) containing 420 μg of linoleic acid as a carrier. Add 200 μL of resuspending (chloroform-hexane (1:1) containing 168 μg of linoleic acid) to 2 mL Ultima Gold™, after 30 min, count on a scintillation counter.
[5] abbreviates: read-out: ACL-ADP-Glo (IC50), 3 nM ACL, 15 μM ATP, 3 μM CoA, 300 μM Citrate.
[6] abbreviates: read-out: ACL-MDH Coupled Assay (IC50), 8 nM ACL, 60 μM CoA Na2, 85 μM Citrate, 250 μM ATP, 250 μM NADH.

Like-named read-outs stand apart in the source and are kept apart here. Bounds are passed on as bounds.

Broadly, the IC50 is the concentration needed to halve the response being measured. Regarding `O=C(c1cc(Cl)c(O)c(S(=O)(=O)Nc2cc(-c3ccccc3)c(F)cc2F)c1)N1CCCC1` [I-82, 3-chloro-N-(4,6-difluoro-[1,1′-biphenyl]-3-yl)-2-hydroxy-5-(pyrrolidine-1-carbonyl)benzenesulfonamide], the IC50 in test [1] (setting [5]) is less than 0.05 µM; in test [2] (setting [6]) it was less than 0.05 µM; in test [3] it was greater than 10 µM; in test [4], 1 to 5 µM.

As for `CC(C)OC(=O)c1cc(Cl)c(O)c(S(=O)(=O)Nc2cc(-c3ccccc3)c(F)cc2F)c1` [I-86, propan-2-yl 3-chloro-5-[(2,4-difluoro-5-phenylphenyl)sulfamoyl]-4-hydroxybenzoate], the IC50 was less than 0.05 µM in test [1] (setting [5]), less than 0.05 µM in test [2] (setting [6]), greater than 10 µM in test [3] and 1 to 5 µM in test [4].

Take `CON(C)C(=O)c1cc(Cl)c(O)c(S(=O)(=O)Nc2cc(-c3ccccc3)c(F)cc2F)c1` [I-87, 3-chloro-5-[(2,4-difluoro-5-phenylphenyl)sulfamoyl]-4-hydroxy-N-methoxy-N-methylbenzamide]: the IC50 is less than 0.05 µM in test [1] (setting [5]), less than 0.05 µM in test [2] (setting [6]), greater than 10 µM in test [3] and 1 to 5 µM in test [4].

For `O=S(=O)(Nc1cc(-c2ccccc2)c(F)cc1F)c1cc(Br)cc(Cl)c1O` [I-88, 5-bromo-3-chloro-N-[4,6-difluoro-[1,1-biphenyl]-3-yl]-2-hydroxybenzene-1-sulfonamide], the IC50 was less than 0.05 µM in test [1] (setting [5]), less than 0.05 µM in test [2] (setting [6]), greater than 10 µM in test [3] and 1 to 5 µM in test [4].

For the compound `O=S(=O)(Nc1cc(-c2ccccc2)c(F)cc1F)c1cc(CO)cc(Cl)c1O` [I-90, 3-chloro-N-(2,4-difluoro-5-phenylphenyl)-2-hydroxy-5-(hydroxymethyl)benzene-1-sulfonamide], the IC50 is 0.05 to 0.5 µM in test [1], 0.05 to 0.5 µM in test [2], greater than 10 µM in test [3] and 1 to 5 µM in test [4].

Regarding `COCc1cc(Cl)c(O)c(S(=O)(=O)Nc2cc(-c3ccccc3)c(F)cc2F)c1` [I-91, 3-chloro-N-(2,4-difluoro-5-phenylphenyl)-2-hydroxy-5-(methoxymethyl)benzene-1-sulfonamide], the IC50 in test [1] lay in the range of 0.05 to 0.5 µM; in test [2], 0.05 to 0.5 µM; in test [3], 1 to 10 µM; in test [4] it was 1 to 5 µM.

In the case of `O=C(c1cc(Cl)c(O)c(S(=O)(=O)Nc2cc(-c3ccccc3)c(F)cc2F)c1)N1CCC1` [I-98, 5-(azetidine-1-carbonyl)-3-chloro-N-(4,6-difluoro-[1,1′-biphenyl]-3-yl)-2-hydroxybenzenesulfonamide], the IC50 is less than 0.05 µM in test [1] (setting [5]), less than 0.05 µM in test [2] (setting [6]), greater than 10 µM in test [3] and 1 to 5 µM in test [4].

As to `CCC(=O)c1cc(Cl)c(O)c(S(=O)(=O)Nc2cc(-c3ccccc3)c(F)cc2F)c1` [I-101, 3-chloro-N-(2,4-difluoro-5-phenylphenyl)-2-hydroxy-5-propanoylbenzene-1-sulfonamide], the IC50 in test [1] (setting [5]) was less than 0.05 µM; in test [2] (setting [6]), less than 0.05 µM; in test [3] it was greater than 10 µM; in test [4], less than 1 µM.

For the compound `COC(=O)c1cc(Cl)c(O)c(S(=O)(=O)Nc2ccc(F)c(-c3ccccc3)c2F)c1` [I-110, Methyl 3-chloro-5-[(2,4-difluoro-3-phenylphenyl)sulfamoyl]-4-hydroxybenzoate], the IC50 in test [1] is 0.5 to 20 µM; in test [2], 0.5 to 30 µM; in test [3], greater than 10 µM; in test [4] it was 1 to 5 µM.

Take `COC(=O)c1cc(Cl)c(O)c(S(=O)(=O)Nc2cc(-c3ccccc3)cc(F)c2F)c1` [I-111, Methyl 3-chloro-5-[(2,3-difluoro-5-phenylphenyl)sulfamoyl]-4-hydroxybenzoate]: the IC50 in test [1] (setting [5]) was less than 0.05 µM; in test [2] (setting [6]), less than 0.05 µM; in test [3], greater than 10 µM; in test [4] it was 1 to 5 µM.

Turning to `O=S(=O)(Nc1cc(-c2ccccc2)ccc1F)c1cc(Br)ccc1O` [I-113, N5-bromo-N-(2-fluoro-5-phenylphenyl)-2-hydroxybenzene-1-sulfonamide], the concentration for half-maximal inhibition (IC50) in test [1] was in the range of 0.5 to 20 µM; in test [2], 0.5 to 30 µM; in test [3], 1 to 10 µM; in test [4], 1 to 5 µM.

As to `O=S(=O)(Nc1cc(-c2ccccc2)c(F)cc1F)c1cc(-c2ncco2)cc(Cl)c1O` [I-116, 3-chloro-N-[4,6-difluoro-[1,1-biphenyl]-3-yl]-2-hydroxy-5-(1,3-oxazol-2-yl)benzene-1-sulfonamide], the IC50 in test [1] (setting [5]) was less than 0.05 µM; in test [2] (setting [6]), less than 0.05 µM; in test [3] it was greater than 10 µM; in test [4], 1 to 5 µM.

Take `O=S(=O)(Nc1cc(-c2ccccc2)c(F)cc1F)c1cc(C(F)(F)F)cc(Cl)c1O` [I-117, 3-chloro-N-(4,6-difluoro-[1,1′-biphenyl]-3-yl)-2-hydroxy-5-(trifluoromethyl)benzenesulfonamide]: the IC50 was less than 0.05 µM in test [1] (setting [5]), less than 0.05 µM in test [2] (setting [6]), 1 to 10 µM in test [3] and 1 to 5 µM in test [4].

`COC(=O)c1cc(Cl)c(O)c(S(=O)(=O)Nc2cc(-c3ccccc3)c(F)cc2F)c1C` [I-126, Methyl 5-chloro-3-([4,6-difluoro-[1,1-biphenyl]-3-yl]sulfamoyl)-4-hydroxy-2-methylbenzoate]: the IC50 in test [1] (setting [5]) was less than 0.05 µM; in test [2], 0.05 to 0.5 µM; in test [3] it was 1 to 10 µM; in test [4], 1 to 5 µM.

`COC(=O)c1cc(Cl)c(O)c(S(=O)(=O)Nc2cc(C3CC3)c(F)cc2F)c1` [I-127, Methyl 3-chloro-5-[(5-cyclopropyl-2,4-difluorophenyl)sulfamoyl]-4-hydroxybenzoate]: the IC50 in test [1] (setting [5]) is less than 0.05 µM; in test [2] (setting [6]) it was less than 0.05 µM; in test [3] it was greater than 10 µM; in test [4], 1 to 5 µM.

As for `COC(=O)c1cc(Cl)c(O)c(S(=O)(=O)Nc2cc(-c3cc4ccccc4s3)c(F)cc2F)c1` [I-128, Methyl 3-[[5-(1-benzothiophen-2-yl)-2,4-difluorophenyl]sulfamoyl]-5-chloro-4-hydroxybenzoate], the IC50 is less than 0.05 µM in test [1] (setting [5]), less than 0.05 µM in test [2] (setting [6]), greater than 10 µM in test [3] and 5 to 20 µM in test [4].

Take `O=S(=O)(Nc1cc(-c2ccccc2)c(F)cc1F)c1cc(F)cc(Cl)c1O` [I-135, 3-chloro-N-[4,6-difluoro-[1,1-biphenyl]-3-yl]-5-fluoro-2-hydroxybenzene-1-sulfonamide]: the IC50 in test [1] lay within 0.05 to 0.5 µM; in test [2] it was 0.05 to 0.5 µM; in test [3] it was 1 to 10 µM; in test [4], 1 to 5 µM.

With `O=C(c1cc(Cl)c(O)c(S(=O)(=O)Nc2cc(-c3cc4ccccc4s3)c(F)cc2F)c1)N1CCC1` [I-138, 5-(azetidine-1-carbonyl)-N-[5-(1-benzothiophen-2-yl)-2,4-difluorophenyl]-3-chloro-2-hydroxybenzene-1-sulfonamide], the IC50 was less than 0.05 µM in test [1] (setting [5]), less than 0.05 µM in test [2] (setting [6]), 1 to 10 µM in test [3] and 1 to 5 µM in test [4].

`COc1ccc(-c2ccccc2)cc1NS(=O)(=O)c1cc(C(=O)N2CCC2)cc(Cl)c1O` [I-145, 5-(azetidine-1-carbonyl)-3-chloro-2-hydroxy-N-[4-methoxy-[1,1-biphenyl]-3-yl]benzene-1-sulfonamide]: the IC50 in test [1] (setting [5]) is less than 0.05 µM; in test [2] (setting [6]), less than 0.05 µM; in test [3] it was greater than 10 µM; in test [4], 1 to 5 µM.
